According to patent US20250064795A1, “METHODS OF TREATING CORONAVIRUS DISEASE AND COMPOUNDS FOR SAME” (Board of Supervisors of Louisiana State University and …, priority 2021, published 2025):
Like-named read-outs stand apart in the source and are kept apart here.

Assays:
[1] = test system: SARS-CoV-2 (USA-WA1/2020 Isolate); assay: In vitro inhibition of SARS-CoV-2 in Calu-3 cells (immunostaining assay); format: cell-based
[2] = conventional Topotecan therapy; cited from earlier work
[3] = cited from earlier work
[4] = in vitro; details: human

Row | Compound | IC50 ([1]; Severe acute respiratory syndrome coronavirus 2, Calu-3) | dose-limiting toxicity [2] | plasma elimination half-life ([3]; in vivo) | time of peak plasma concentrations ([3]; oral administration) | inhibition of SARS-CoV-2 ([1]; Calu-3 cells, FIG. 1) | IC50 ([1]; Severe acute respiratory syndrome coronavirus 2, Calu-3 cells, 24 h pretreatment, MOI 0.005, 48 h after inoculation, FIG. 1, read-out: IC50 of inhibition of SARS-CoV-2) | IC50 ([1]; Severe acute respiratory syndrome coronavirus 2, replicate experiments, Calu-3 cells, FIG. 3 and FIG. 4B, read-out: IC50) | CC50 [4]
1 | CCC(CC)COC(=O)[C@H](C)N[P@](=O)(OC[C@H]1O[C@@](C#N)(c2ccc3c(N)ncnn23)[C@H](O)[C@@H]1O)Oc1ccccc1 [Remdesivir] | 116 nM |  |  |  |  |  |  | 
2 | CC[C@@]1(O)C(=O)OCc2c1cc1n(c2=O)Cc2cc3c(CN(C)C)c(O)ccc3nc2-1 [Topotecan] |  | bone marrow suppression | 2 to 3 h | 1 to 2 h | Complete or near complete inhibition | 35 nM | 9.36 nM | 169 nM
